Assay results: PMC10255231, “Cytotoxic, Anti-Hemolytic, and Antioxidant Activities of Ruta chalepensis L. (Rutaceae) Extract, Fractions, and Isolated Compounds” (Plants, 2023)
In brackets after ≈: the same amount, converted by molar mass.

How the values were obtained:
VERO cells = test: MTT cell viability assay, normal VERO cells; assay type: cell-based, African green monkey; conditions: Chlorocebus sabaeus, 72 h
Description: (§1) The human hepatocellular carcinoma cell line HEP-G2 (ATCC HB-8065) and the monkey kidney epithelial cell line VERO (ATCC CCL-81) were obtained from the Laboratory of Immunology and Virology in FCB at UANL (FCB-UANL), México, and cultured in DMEM, supplemented with 10% heat-inactivated FBS, 2% NaHCO3, and HEPES [57]. Murine lymphoma L5178Y-R cells (ATCC CRL-1722) and human peripheral blood mononuclear cells (PBMC) were maintained in RPMI-1640 culture medium, supplemented with 10% heat-inactivated FBS and 1% antibiotic/antimycotic solution [26]. Assays were conducted with adherent HEP-G2 and VERO cells on flat-bottom microplates and non-adherent L5178Y-R and PBMC cells were evaluated on round-bottom microplates.
(§2) Cells were cultured at 37 °C and 5% CO2 in 95% air in a humidified incubator, in the presence or absence of treatments for 72 h. After which they were incubated with MTT (0.5 mg/mL final concentration) at 37 °C in 5% CO2 for 3 h and supernatants were discarded after the incubation period. Resulting formazan crystals were dissolved in DMSO, and optical densities (OD) were measured at 540 nm, using a microplate reader (Molecular Devices Corporation in Palo Alto, CA). In addition, […] (IC50) values were determined after 72 h incubation with treatments at concentrations ranging from 7.81 µg/mL to 1000 µg/mL and ODs were measured at 570 nm on a microplate reader (Molecular Devices Corporation). The positive control consisted of 0.05 µg/mL VS and the negative control was culture medium alone. All treatments were diluted in DMSO to a final well test concentration not exceeding 0.5% (v/v). Cell viability was determined using the following Formula (2):(2) Cell viability %=OD570nmTreatment/OD570nmNegative control×100

PBMC = test: MTT cell viability assay, normal PBMC; assay type: cell-based; conditions: Homo sapiens, 72 h, normal cells
Description: as §1, §2

HEP-G2 cells = test: MTT cell viability assay, HEP-G2 tumor cells; assay type: cell-based; conditions: Homo sapiens, HepG2, 72 h
Description: as §1, §2
To determine the selectivity index (SI) for each treatment, we divided the IC50 of […]. SI was assessed for adherent cells (non-tumor/tumor) and for non-adherent cells (non-tumor/tumor). […] SI was calculated using the following Formula (3):(3) SI=IC50 Normal Cells/IC50 Tumor Cells

human red blood cells [1] = test: Hemolytic activity test; assay type: cell-based; conditions: human erythrocytes, PBS pH 7.4; for IC50: Erythrocyte
Method: The hemolytic activity was assessed using the hemolysis test at treatment concentrations ranged from 7.81 µg/mL to 1000 µg/mL in PBS at pH 7.4. IC50 values were defined as the sample concentration needed to cause 50% hemolysis of human red blood cells. The percentage of hemolysis was determined by measuring ODs at 540 nm as follows (4):(4) Hemolysis %=OD540nm Treatment/OD540nm Positive control×100

human red blood cells [2] = test: Anti-hemolytic activity test (AAPH inhibition); assay type: cell-based; conditions: human erythrocytes, AAPH 150 mM, PBS pH 7.4
Method: The AAPH inhibition test was used to determine the anti-hemolytic activity, as previously reported. Hemolysis was induced by the AAPH radical (150 mM in PBS) as a positive control. Treatment concentrations ranged from 7.81 µg/mL to 1000 µg/mL in PBS at pH 7.4 plus AAPH. IC50 values were defined as the sample concentration needed to cause 50% hemolysis of human red blood cells. The anti-hemolytic activity was evaluated using the following Formula (5):(5) % Anti−hemolytic Activity=1−OD570nm Treatment/OD570nm Positive control×100

L5178Y-R cells = test: MTT cell viability assay, L5178Y-R lymphoma cells; assay type: cell-based, murine; conditions: Mus musculus, 72 h, tumor cells
Description: as §1
Cells were cultured at 37 °C and 5% CO2 in 95% air in a humidified incubator, in the presence or absence of treatments for 72 h. […] Resulting formazan crystals were dissolved in DMSO, and optical densities (OD) were measured at 540 nm, using a microplate reader (Molecular Devices Corporation in Palo Alto, CA). […] Cell viability was determined using the following Formula (2):(2) Cell viability %=OD570nmTreatment/OD570nmNegative control×100
To determine the selectivity index (SI) for each treatment, we divided the IC50 of […]. SI was assessed for adherent cells (non-tumor/tumor) and for non-adherent cells (non-tumor/tumor). […]

IC50 (HEP-G2 cells) [mg/L]	IC50 (L5178Y-R cells) [mg/L]	SMILES	IC50 (VERO cells) [mg/L]	IC50 (PBMC) [mg/L]	IC50 (human red blood cells [1]) [mg/L]	Hemolytic Activity IC50 (human red blood cells [1])	IC50 (human red blood cells [2]; Erythrocyte) [mg/L]	Anti-Hemolytic Activity IC50 (human red blood cells [2])
76.2 ± 2.85 (≈ 300 µM)		C=CC(C)(C)c1cc2cc3ccoc3cc2oc1=O [CHL, Chalepensin]	387 ± 9.24 (≈ 1520 µM)	226 ± 5.67 (≈ 891 µM)	101 ± 4.2 (≈ 397 µM)	did not show significant hemolytic activity	180 ± 4.76 (≈ 707 µM)	
54.6 ± 3.34 (≈ 196 µM)	< 50	Cn1c(-c2ccc3c(c2)OCO3)cc(=O)c2ccccc21 [GRV, Graveoline]	179 ± 7.39 (≈ 640 µM)	159 ± 30.6 (≈ 569 µM)	57.6 ± 11.3 (≈ 206 µM)			did not exhibit any anti-hemolytic activity
130 ± 3.68 (≈ 364 µM)		C=CC(C)(C)c1cc2cc3c(cc2oc1=O)OC(C(C)(C)OC(C)=O)C3 (stereo not drawn) [RTM, Rutamarin]	430 ± 4.07 (≈ 1210 µM)	151 ± 10.1 (≈ 424 µM)	> 1500	did not show significant hemolytic activity		did not exhibit any anti-hemolytic activity
